# Measurements taken from ChEMBL document CHEMBL1157920, “Inhibition of antigen-induced degranulation by aryl compounds isolated from the bark of Betula platyphylla in RBL-2H3 cells” (2010).
# Tests used:
# RBL-2H3 [1] = assay: Inhibition of anti-DNP-IgE-induced degranulation in rat RBL2H3 cells assessed as betahexosaminidase released at 10 uM after 20 mins by microplate reader assay; type: functional; conditions: RBL-2H3, 20 min
# RBL-2H3 [2] = assay: Inhibition of anti-DNP-IgE-induced degranulation in rat RBL2H3 cells assessed as betahexosaminidase released at 100 uM after 20 mins by microplate reader assay; type: functional; conditions: RBL-2H3, 20 min
Compound,inhibition at 10 µM (RBL-2H3 [1]) [%],inhibition at 100 µM (RBL-2H3 [2]) [%]
C[C@@H](O)CCc1ccc(O)cc1,29.7,36.5
C[C@H](CCc1ccc(O)cc1)O[C@@H]1O[C@H](CO)[C@@H](O)[C@H](O)[C@H]1O,25,42.3
C[C@H](CCc1ccc(O)cc1)O[C@H]1O[C@H](COC(=O)C[C@@](C)(O)CC(=O)O)[C@@H](O)[C@H](O)[C@H]1O,26.6,20
OC[C@]1(O)CO[C@@H](OC[C@H]2O[C@@H](O[C@H](CCCCc3ccc(O)cc3)CCc3ccc(O)cc3)[C@H](O[C@H]3OC[C@@](O)(CO)[C@@H]3O)[C@@H](O)[C@@H]2O)[C@H]1O,22.1,23.2
O=C(CCc1ccc(O)cc1)C[C@@H](CCc1ccc(O)cc1)O[C@@H]1O[C@H](CO[C@@H]2OC[C@](O)(CO)[C@H]2O)[C@@H](O)[C@H](O)[C@H]1O[C@H]1OC[C@@](O)(CO)[C@@H]1O,11.8,23.4
Oc1ccc(CCCC[C@@H](O)CCc2ccc(O)cc2)cc1,19.2,31.5
OC[C@]1(O)CO[C@@H](OC[C@H]2O[C@@H](O[C@H](CCCCc3ccc(O)cc3)CCc3ccc(O)cc3)[C@H](O)[C@@H](O)[C@@H]2O)[C@H]1O [ACEROSIDEVIII],11.7,22.4
C[C@H](CCc1ccc(O)cc1)O[C@@H]1O[C@H](CO[C@@H]2OC[C@@](O)(CO)[C@@H]2O)[C@@H](O)[C@H](O)[C@H]1O [APIOSYLRHODODENDRIN],25.4,26.7
O=c1c(O)c(-c2ccc(O)c(O)c2)oc2cc(O)cc(O)c12 [QUERCETIN],32.9,
